Experimental data as given in patent US7425640B2, “Substituted 5-carboxyamide pyrazoles and [1,2,4]triazoles as antiviral agents” (priority 2004, dated 2008).

Target: HCV RNA-dependent RNA polymerase NS5B (Δ21) (Hepatitis C virus genotype 1b, UniProt P26663)
Experiment: Assay for HCV RNA-dependent RNA polymerase activity (SPA, [3H]-GTP incorporation)
Format: biochemical
Details: read-out: Δ21 Activity (IC50 μM); 50 nM NS5B (Δ21), class symbols
Method: Inhibitory activity of the present compounds against HCV RNA-dependent RNA polymerase was assayed according to the methods disclosed in United States Patent Application US2004/038993, content of which is incorporated herein by reference; and those described in Ferrari, E.; Wright-Minogue, J.; Fang, J. W. S.; Baroudy, B. M.; Lau, J. Y. N.; Hong, Z. J. Virol. 1999, 73, 1649.
Briefly, 50 μl reactions containing 20 mM HEPES (pH 7.3), 7.5 mM DTT, 20 units/ml RNasIN, 0.5 μg/ml biotinylated oligoG12, 5 μg/ml polyC, 5 μM GTP, 20 μCi/ml [^3H]-GTP, 10 mM MgCl2, 60 mM NaCl, 100 μg/ml BSA, and 50 nM NS5B (Δ21) were incubated at room temperature for three hours in 96-well plates with or without test compounds. Assay was terminated by the addition of 50 μl 10 mg/ml streptavidin-coated SPA beads supplemented with 100 mM EDTA, and the incorporation of labeled GTP determined by a TopCount Scintillation Counter. IC50 values were calculated from single experiments using 11 serial 2-fold dilutions (0.05-50 μM), and data were considered reliable only when the IC50 value of a positive internal control was within standard deviation range.

Sequence of HCV RNA-dependent RNA polymerase NS5B (Δ21) (P26663 2420-2989, stated change not applied): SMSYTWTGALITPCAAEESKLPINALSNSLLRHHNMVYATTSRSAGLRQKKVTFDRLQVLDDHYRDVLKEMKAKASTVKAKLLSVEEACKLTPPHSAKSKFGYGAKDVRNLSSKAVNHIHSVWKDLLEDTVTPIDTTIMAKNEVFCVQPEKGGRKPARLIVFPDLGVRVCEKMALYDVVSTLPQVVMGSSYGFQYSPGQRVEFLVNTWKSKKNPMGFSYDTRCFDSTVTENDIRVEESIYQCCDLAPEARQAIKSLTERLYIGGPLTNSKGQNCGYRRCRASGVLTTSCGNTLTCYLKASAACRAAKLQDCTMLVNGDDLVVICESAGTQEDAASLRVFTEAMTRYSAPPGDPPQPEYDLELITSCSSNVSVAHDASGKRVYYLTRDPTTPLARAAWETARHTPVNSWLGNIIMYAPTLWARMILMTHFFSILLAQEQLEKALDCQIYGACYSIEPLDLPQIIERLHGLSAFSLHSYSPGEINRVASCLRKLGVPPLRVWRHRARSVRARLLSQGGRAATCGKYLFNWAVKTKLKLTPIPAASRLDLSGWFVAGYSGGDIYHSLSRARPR

| Structure (SMILES) | IC50 |
| --- | --- |
| CCOC(=O)c1cc(C(=O)N[C@H]2CCCC[C@@H]2OCc2ccccc2)n(CC(=O)N[C@H]2CCCC[C@@H]2OCc2ccccc2)n1 [Compound 49] | 0.1 to 1 µM |
| O=C(Cn1nc(C(=O)NCc2ccccc2)cc1C(=O)N[C@H]1CCCC[C@@H]1OCc1ccccc1)N[C@H]1CCCC[C@@H]1OCc1ccccc1 [Compound 50] | 0.1 to 1 µM |
| O=C(Cn1nc(C(=O)N2CCc3ccccc3C2)cc1C(=O)N[C@H]1CCCC[C@@H]1OCc1ccccc1)N[C@H]1CCCC[C@@H]1OCc1ccccc1 [Compound 51] | 0.1 to 1 µM |
| CC(C)(NC(=O)c1cc(C(=O)N[C@H]2CCCC[C@@H]2OCc2ccccc2)n(CC(=O)N[C@H]2CCCC[C@@H]2OCc2ccccc2)n1)c1ccccc1 [Compound 52] | 0.1 to 1 µM |
| O=C(Cn1nc(C(=O)NOCc2ccccc2)cc1C(=O)N[C@H]1CCCC[C@@H]1OCc1ccccc1)N[C@H]1CCCC[C@@H]1OCc1ccccc1 [Compound 53] | 0.1 to 1 µM |
| O=C(Cn1nc(C(=O)Nc2ccccc2)cc1C(=O)N[C@H]1CCCC[C@@H]1OCc1ccccc1)N[C@H]1CCCC[C@@H]1OCc1ccccc1 [Compound 54] | 0.1 to 1 µM |
| O=C(Cn1nc(NS(=O)(=O)c2cccc3ccccc23)cc1C(=O)N[C@H]1CCCC[C@@H]1OCc1ccccc1)N[C@H]1CCCC[C@@H]1OCc1ccccc1 [Compound 55] | 0.1 to 1 µM |
| Cc1ccc(OCC2CC2)c(NC(=O)Cn2nc(C(=O)O)cc2C(=O)N[C@H]2CCCC[C@@H]2OCc2ccccc2)c1 [Compound 56] | 0.1 to 1 µM |
| O=C(O)c1cc(C(=O)N[C@H]2CCCC[C@@H]2OCc2ccccc2)n(CS(=O)(=O)N[C@H]2CCCC[C@@H]2OCc2ccccc2)n1 [Compound 57] | 0.1 to 1 µM |
| O=C(Cn1nc(NS(=O)(=O)c2ccc(Br)c(Br)c2)cc1C(=O)N[C@H]1CCCC[C@@H]1OCc1ccccc1)N[C@H]1CCCC[C@@H]1OCc1ccccc1 [Compound 58] | 0.1 to 1 µM |
| O=C(Cn1nc(C(=O)O)nc1C(=O)Nc1ccccc1OCC1CCCCC1)N[C@H]1CCCC[C@@H]1OCc1ccccc1 [Compound 59] | 0.1 to 1 µM |
| CS(=O)(=O)Nc1cc(C(=O)N[C@H]2CCCC[C@@H]2OCc2ccccc2)n(CC(=O)N[C@H]2CCCC[C@@H]2OCc2ccccc2)n1 [Compound 60] | 0.1 to 1 µM |
| O=C(Cn1nc(NS(=O)(=O)c2ccc(Cl)c(Cl)c2)cc1C(=O)N[C@H]1CCCC[C@@H]1OCc1ccccc1)N[C@H]1CCCC[C@@H]1OCc1ccccc1 [Compound 61] | 0.1 to 1 µM |
| O=C(Cn1nc(C(=O)O)nc1C(=O)Nc1ccccc1OCc1ccccc1)N[C@H]1CCCC[C@@H]1OCc1ccccc1 [Compound 62] | 0.1 to 1 µM |
| CC(C)C(=O)c1cc(C(=O)N[C@H]2CCCC[C@@H]2OCc2ccccc2)n(CC(=O)N[C@H]2CCCC[C@@H]2OCc2ccccc2)n1 [Compound 63] | 0.1 to 1 µM |
| CN(C)c1cccc2c(S(=O)(=O)NCCNC(=O)c3cc(C(=O)N[C@H]4CCCC[C@@H]4OCc4ccccc4)n(CC(=O)N[C@H]4CCCC[C@@H]4OCc4ccccc4)n3)cccc12 [Compound 64] | 0.1 to 1 µM |
| CC(C)(C)OC(=O)c1cc(C(=O)N[C@H]2CCCC[C@@H]2OCc2ccccc2)n(CC(=O)N[C@H]2CCCC[C@@H]2OCc2ccccc2)n1 [Compound 65] | 0.1 to 1 µM |
| O=C(Cn1nc(C(=O)O)nc1C(=O)N[C@H]1CCCC[C@@H]1OCc1ccccc1)N[C@H]1CCCC[C@@H]1OCc1ccccc1 [Compound 66] | 0.1 to 1 µM |
| Cc1c(Cl)cccc1S(=O)(=O)Nc1cc(C(=O)N[C@H]2CCCC[C@@H]2OCc2ccccc2)n(CC(=O)N[C@H]2CCCC[C@@H]2OCc2ccccc2)n1 [Compound 67] | 0.1 to 1 µM |
| O=C(Cn1nc(C(=O)NOCc2cccc3ccccc23)cc1C(=O)N[C@H]1CCCC[C@@H]1OCc1ccccc1)N[C@H]1CCCC[C@@H]1OCc1ccccc1 [Compound 68] | 0.1 to 1 µM |
| O=C(Cn1nc(O)cc1C(=O)N[C@H]1CCCC[C@@H]1OCc1ccccc1)N[C@H]1CCCC[C@@H]1OCc1ccccc1 [Compound 69] | 0.1 to 1 µM |
| O=C(Cn1nc(C(=O)NCc2cccc(Cl)c2)cc1C(=O)N[C@H]1CCCC[C@@H]1OCc1ccccc1)N[C@H]1CCCC[C@@H]1OCc1ccccc1 [Compound 70] | 0.1 to 1 µM |
| O=C(Cn1nc(NS(=O)(=O)c2ccc(F)cc2Cl)cc1C(=O)N[C@H]1CCCC[C@@H]1OCc1ccccc1)N[C@H]1CCCC[C@@H]1OCc1ccccc1 [Compound 71] | 0.1 to 1 µM |
| O=C(Cn1nc(C(=O)NOCC2CC2)cc1C(=O)N[C@H]1CCCC[C@@H]1OCc1ccccc1)N[C@H]1CCCC[C@@H]1OCc1ccccc1 [Compound 72] | 0.1 to 1 µM |
| COc1ccccc1NC(=O)c1cc(C(=O)N[C@H]2CCCC[C@@H]2OCc2ccccc2)n(CC(=O)N[C@H]2CCCC[C@@H]2OCc2ccccc2)n1 [Compound 73] | 0.1 to 1 µM |

| Structure (SMILES) | IC50 |
| --- | --- |
| C[C@@H](NC(=O)c1cc(C(=O)NC2CCCCC2OCc2ccccc2)n(CC(=O)N[C@H]2CCCC[C@@H]2OCc2ccccc2)n1)c1cccc2ccccc12 (some centres unmarked) [Compound 74] | 0.1 to 1 µM |
| O=C(Cn1nc(NC(=O)C(F)(F)F)cc1C(=O)N[C@H]1CCCC[C@@H]1OCc1ccccc1)N[C@H]1CCCC[C@@H]1OCc1ccccc1 [Compound 75] | 0.1 to 1 µM |
| Cc1ccc(OCC2CC2)c(NC(=O)c2cc(C(=O)O)nn2CC(=O)N[C@H]2CCCC[C@@H]2OCc2ccccc2)c1 [Compound 76] | 0.1 to 1 µM |
| CC(C)CNC(=O)c1cc(C(=O)N[C@H]2CCCC[C@@H]2OCc2ccccc2)n(CC(=O)N[C@H]2CCCC[C@@H]2OCc2ccccc2)n1 [Compound 77] | 0.1 to 1 µM |
| CC(C)S(=O)(=O)Nc1cc(C(=O)N[C@H]2CCCC[C@@H]2OCc2ccccc2)n(CC(=O)N[C@H]2CCCC[C@@H]2OCc2ccccc2)n1 [Compound 78] | 0.1 to 1 µM |
| O=C(Cn1nc(NS(=O)(=O)c2ccc(F)cc2F)cc1C(=O)N[C@H]1CCCC[C@@H]1OCc1ccccc1)N[C@H]1CCCC[C@@H]1OCc1ccccc1 [Compound 79] | 0.1 to 1 µM |
| O=C(Cn1nc(NS(=O)(=O)c2cccc(Cl)c2)cc1C(=O)N[C@H]1CCCC[C@@H]1OCc1ccccc1)N[C@H]1CCCC[C@@H]1OCc1ccccc1 [Compound 80] | 0.1 to 1 µM |
| O=C(Cn1nc(C(=O)NCc2ccccc2Cl)cc1C(=O)N[C@H]1CCCC[C@@H]1OCc1ccccc1)N[C@H]1CCCC[C@@H]1OCc1ccccc1 [Compound 81] | 0.1 to 1 µM |
| CC(=O)Nc1ccc(S(=O)(=O)Nc2cc(C(=O)N[C@H]3CCCC[C@@H]3OCc3ccccc3)n(CC(=O)N[C@H]3CCCC[C@@H]3OCc3ccccc3)n2)cc1 [Compound 82] | 0.1 to 1 µM |
| O=C(Cn1nc(C(=O)NC2CCCCC2)cc1C(=O)N[C@H]1CCCC[C@@H]1OCc1ccccc1)N[C@H]1CCCC[C@@H]1OCc1ccccc1 [Compound 83] | 0.1 to 1 µM |
| O=C(Cn1nc(NS(=O)(=O)Cc2ccccc2)cc1C(=O)N[C@H]1CCCC[C@@H]1OCc1ccccc1)N[C@H]1CCCC[C@@H]1OCc1ccccc1 [Compound 84] | 0.1 to 1 µM |
| O=C(Cn1nc(NS(=O)(=O)c2ccc([N+](=O)[O-])cc2)cc1C(=O)N[C@H]1CCCC[C@@H]1OCc1ccccc1)N[C@H]1CCCC[C@@H]1OCc1ccccc1 [Compound 85] | 0.1 to 1 µM |
| O=C(Cn1nc(C(=O)N2CCCC3CC=CC=C32)cc1C(=O)N[C@H]1CCCC[C@@H]1OCc1ccccc1)N[C@H]1CCCC[C@@H]1OCc1ccccc1 (some centres unmarked) [Compound 86] | 0.1 to 1 µM |
| CC(C)(C)c1ccc(S(=O)(=O)Nc2cc(C(=O)N[C@H]3CCCC[C@@H]3OCc3ccccc3)n(CC(=O)N[C@H]3CCCC[C@@H]3OCc3ccccc3)n2)cc1 [Compound 87] | 0.1 to 1 µM |
| O=C(Cn1nc(C(=O)c2ccccc2)cc1C(=O)N[C@H]1CCCC[C@@H]1OCc1ccccc1)N[C@H]1CCCC[C@@H]1OCc1ccccc1 [Compound 88] | 0.1 to 1 µM |
| CC1CCC(OCc2ccccc2)C(NC(=O)c2cc(C(=O)O)nn2CS(=O)(=O)N[C@H]2CCCC[C@@H]2OCc2ccccc2)C1 (some centres unmarked) [Compound 89] | 0.1 to 1 µM |
| Cc1c(S(=O)(=O)Nc2cc(C(=O)N[C@H]3CCCC[C@@H]3OCc3ccccc3)n(CC(=O)N[C@H]3CCCC[C@@H]3OCc3ccccc3)n2)sc2ccc(Cl)cc12 [Compound 90] | 0.1 to 1 µM |
| O=C(Cn1nc(NC(=O)c2ccccc2)cc1C(=O)N[C@H]1CCCC[C@@H]1OCc1ccccc1)N[C@H]1CCCC[C@@H]1OCc1ccccc1 [Compound 91] | 0.1 to 1 µM |
| O=C(Cn1nc(C(=O)NCc2cccs2)cc1C(=O)N[C@H]1CCCC[C@@H]1OCc1ccccc1)N[C@H]1CCCC[C@@H]1OCc1ccccc1 [Compound 92] | 0.1 to 1 µM |
| CCCCOCCCNC(=O)c1cc(C(=O)N[C@H]2CCCC[C@@H]2OCc2ccccc2)n(CC(=O)N[C@H]2CCCC[C@@H]2OCc2ccccc2)n1 [Compound 93] | 0.1 to 1 µM |
| O=C(Cn1nc(C(=O)NCCc2cccc(Cl)c2)cc1C(=O)N[C@H]1CCCC[C@@H]1OCc1ccccc1)N[C@H]1CCCC[C@@H]1OCc1ccccc1 [Compound 94] | 0.1 to 1 µM |
| CC(NC(=O)c1cc(C(=O)N[C@H]2CCCC[C@@H]2OCc2ccccc2)n(CC(=O)N[C@H]2CCCC[C@@H]2OCc2ccccc2)n1)c1ccccc1 (some centres unmarked) [Compound 95] | 0.1 to 1 µM |
| O=C(Cn1nc(NS(=O)(=O)c2cc(Cl)ccc2Cl)cc1C(=O)N[C@H]1CCCC[C@@H]1OCc1ccccc1)N[C@H]1CCCC[C@@H]1OCc1ccccc1 [Compound 96] | 0.1 to 1 µM |
| COc1ccc(OC)c(S(=O)(=O)Nc2cc(C(=O)N[C@H]3CCCC[C@@H]3OCc3ccccc3)n(CC(=O)N[C@H]3CCCC[C@@H]3OCc3ccccc3)n2)c1 [Compound 97] | 0.1 to 1 µM |
| Cc1ccc(OCc2ccccc2)c(NC(=O)c2cc(C(N)=O)nn2CC(=O)N[C@H]2CCCC[C@@H]2OCc2ccccc2)c1 [Compound 98] | 0.1 to 1 µM |
